# Measured values taken from EP2896688A1 (Centre National de la Recherche Scientifique (CNRS), priority 2014, dated 2015).
# How the values were obtained:
# [1] = system: E13.5 rat embryonic pancreases; assay: Number of NGN3-positive cells by immunohistochemistry in cultured embryonic pancreases; assay type: cell-based; conditions: for number of NGN3-positive endocrine progenitor cells, decrease: 1 day, NAC at 10 µM or CCCP at 1 µM
# Protocol: (§1) The embryos were harvested on E13.5. The dorsal pancreatic bud was dissected, as described previously (Attali et al., 2007). For the depletion of the mesenchyme, the digestive tract was incubated with 0.5 mg/ml collagenase A (Roche, Meyaln, France) at 37°c for 30 min, then washed several times with Hank's balanced solution (Invitrogen, Cergy-Pontoise, France) at 4°c, and the epithelium was mechanically separated from the mesenchyme using needles on 0.25% agar, 25% Hank's balanced solution and 75% RPMI gel (Life Technologies, Invitrogen) in a petri dish. Pancreatic rudiments (epithelium with mesenchyme) or epithelia were then cultured at the air-medium interface on Millicell culture plate inserts (Millipore, Molsheim, France) in Petri dishes containing RPMI 1640 (Invitrogen) supplemented with penicillin (100 U/ml), streptomycin ([…]), HEPES (10 mM), l-glutamine (2 mM), nonessential amino acids (1; Invitrogen, Cergy-Pontoise, France) and 10% heat-inactivated calf serum (Hyclone, South Logan, UT, USA) for one to 7 days. […] Glucose (Sigma, Saint-Quentin Fallavier, France) was used at 20 mM/l and the inhibitor of the ERK pathway (U0126, Cell Sinaling Technologies Ozyme, Saint-Quentin, France) at 10 µmol/l. Cultures were maintained at 37°C in humidified 95% air and 5% CO2.
# Ad-CMV-GFP (ref 1060, Vector Biolabs, Philadelphia, PA, USA) and Ad-Catalase (ref 1475, Vector Biolabs) adenoviruses were used to infect the embryonic Wistar rat epithelia. Tissues were incubated with viral particles at the multiplicity of infection of 1000 for 4 h at 37°C in RPMI 1640 as described in (Heinis et al.2012). After infection, tissues were washed twice in HBSS and cultured at the air-medium interface.
# Tissues were fixed in 10% formalin and processed for immunohistochemistry, as described previously (Attali et al., 2007). The following antibodies were used: mouse anti-insulin (1:2000; Sigma-Aldrich), rabbit anti-PDX1 (1:1,000), rabbit anti-amylase (Sigma-Aldrich, 1:300), mouse anti-E-cadherin (1:100, BD Biosciences, Le Pont de Claix, France), mouse anti-BrdU (1:2, Amersham, Velizy-Villacoublay, France), rabbit anti-NGN3 (1:1000) (Guillemain et al., 2007), rabbit anti-catalase (1:1000, Rockland Immunochemicals, Gilbertsville, PA USA). The fluorescent secondary antibodies were fluorescein-isothiocyanate anti-rabbit and Texas-red anti-mouse antibodies (1:200, Jackson Immunoresearch, Suffolk, England), and Atexa-fluor anti-rabbit antibody (1:400, Biogenex, Fremont, CA, USA). For NGN3, revelation was performed using the vectastain ABC kit (Vector LAB, Peterborough, England). Photographs were taken using a fluorescence microscope (Leitz DMRB; Leica) and digitized using a Hamamatsu (Middlesex, NJ, USA) C5810 cooled 3CCD camera.
# (§2) To quantify the number of NGN3-positive cells, NGN3-positive cells were counted on all sections. Statistical significance was determined using Student's t test.
# [2] = system: E13.5 rat embryonic pancreases; assay: Beta cell development (insulin staining surface) in cultured embryonic pancreases; assay type: cell-based; conditions: for insulin staining surface: day 7, NAC at 10 µM or CCCP at 1 µM
# Excerpt: The embryos were harvested on E13.5. […] On every image, the surface area of insulin staining was quantified using ImageJ as described in (Heinis et al.).
# [3] = system: E13.5 rat embryonic pancreases; conditions: one day of culture, 50 µM H2O2
# Protocol: as §1, with “CO2. […]” for “CO2.”
# (§3) Statistical significance was determined using Student's t test.
# [4] = system: Notch receptors 1 and 2, the Notch target Hes 1, the Notch ligands Jagged 1, Jagged 2, Delta-like 1; conditions: one day, 50 µM H2O2
# Protocol: as §1
# Total RNA was purified using the Rneasy microkit (Qiagen, Courtaboeuf, France). […]
# Nrf2 = conditions: pancreases treated with H2O2; data not shown
# Protocol: Total RNA was purified using the Rneasy microkit (Qiagen, Courtaboeuf, France). The cDNA was generated using Superscript reagents (Invitrogen), and the real-time PCR was performed on a 7300 real-time PCR system (Applied Biosystem, Invitrogen) with an SYBR Green PCR master mix. The oligonucleotide sequences for RT-PCR are available on request.
# beta cells = conditions: concentrations of H2O2 used
# ERK1/2 = assay: Western blot of ERK1/2 and MEK phosphorylation in cultured embryonic pancreases; assay type: cell-based, rat
# Protocol: The embryos were harvested on E13.5. The dorsal pancreatic bud was dissected, as described previously (Attali et al., 2007). […] Glucose (Sigma, Saint-Quentin Fallavier, France) was used at 20 mM/l and the inhibitor of the ERK pathway (U0126, Cell Sinaling Technologies Ozyme, Saint-Quentin, France) at 10 µmol/l.
# For Western blotting analysis, cells were lysed in Laemmli buffer. Proteins (20µg) were resolved by SDS/PAGE and electrophoretically transferred onto PVDF membrane (Bio-Rad, Hercules, CA, USA). After blocking with milk, membranes were probed with rat anti-p44/42 MAPK (Erk1/2), mouse anti-Phospho-p44/42 MAPK (Erk1/2) (Thr202/Tyr204), anti-Phospho-MEK (all from Cell Signaling Ozyme, ST Quentin en Yvelines, France) and mouse anti-actin (Sigma-Aldrich).Immunoreactive bands were visualized with the SuperSignal System (Pierce; Fisher Scientific, Illkirch, France).
# The Mitogen Activated Protein Kinase (MAPK) ERK1/2 pathway, which was recently shown to be sensitive to ROS production in several cell types (Zhang et al., 2013) was examined. […] As a positive control, pancreases were also treated with 20 mM Glucose, an inducer of the ERK1/2 phosphorylation (Briaud et al., 2003). […] To further characterize ERK1/2-dependent effect of ROS on pancreas development, an ERK1/2 inhibitor was used (U0126). To validate the efficiency of the inhibitor, pancreatic explants were first cultured with glucose, in the presence or in the absence of U0126. Activation of ERK1/2 by glucose was abolished in the presence of U0126 (Figure 8A), confirming the efficiency of U0126.
# early PDX1+ progenitors = conditions: 1 day of culture, 50 µM H2O2
# Protocol: The embryos were harvested on E13.5. The dorsal pancreatic bud was dissected, as described previously (Attali et al., 2007). For the depletion of the mesenchyme, the digestive tract was incubated with 0.5 mg/ml collagenase A (Roche, Meyaln, France) at 37°c for 30 min, then washed several times with Hank's balanced solution (Invitrogen, Cergy-Pontoise, France) at 4°c, and the epithelium was mechanically separated from the mesenchyme using needles on 0.25% agar, 25% Hank's balanced solution and 75% RPMI gel (Life Technologies, Invitrogen) in a petri dish. Pancreatic rudiments (epithelium with mesenchyme) or epithelia were then cultured at the air-medium interface on Millicell culture plate inserts (Millipore, Molsheim, France) in Petri dishes containing RPMI 1640 (Invitrogen) supplemented with penicillin (100 U/ml), streptomycin ([…]), HEPES (10 mM), l-glutamine (2 mM), nonessential amino acids (1; Invitrogen, Cergy-Pontoise, France) and 10% heat-inactivated calf serum (Hyclone, South Logan, UT, USA) for one to 7 days. […]
# Tissues were fixed in 10% formalin and processed for immunohistochemistry, as described previously (Attali et al., 2007). […] Photographs were taken using a fluorescence microscope (Leitz DMRB; Leica) and digitized using a Hamamatsu (Middlesex, NJ, USA) C5810 cooled 3CCD camera.
# as §3
# embryonic pancreases = assay: NAC given to pregnant rats in drinking water, analysis of embryonic pancreases; assay type: in vivo, Wistar Rats; conditions: pregnant rats treated with 10 mM NAC from E13.5
# Excerpt: Pregnant Wistar Rats were purchased from the Janvier Breeding center (CERJ Janvier, Le Genest Saint-Ile, France). The animals had free access to food pellets and water. Embryonic day 0.5 (E0.5) was considered the first day postcoïtum. Pregnant female were killed by CO2 asphyxiation according to the guidelines of the French Animal Care Committee.
# N-Acetyl cystein (Sigma, Saint-Quentin Fallavier, France) treatment was initiated during embryonic life at E13.5 and given into drinking water to pregnant females.
# For NGN3, revelation was performed using the vectastain ABC kit (Vector LAB, Peterborough, England).
# To quantify the absolute number of insulin-expressing cells, all sections of each pancreatic rudiment were digitized. On every image, the surface area of insulin staining was quantified using ImageJ as described in (Heinis et al.).
# as §2
# Female pregnant rats at 13.5 days postcoitus were treated with NAC, and the number of NGN3-positive cells was measured.
structure (smiles),measurement,setting,value
"N#CC(C#N)=NNc1cccc(Cl)c1 [CCCP, Carbonyl cyanide m-chlorophenyl hydrazone]","number of NGN3-positive endocrine progenitor cells, decrease",[1],~2 fold
same,insulin staining surface,[2],decrease
"OO [H2O2, hydrogen peroxide]",rate of apoptosis vs controls,[3],No difference
same,expression of Notch pathway genes vs controls,[4],No difference
same,number of NGN3 expressing cells,"[1]; H2O2 at 50 µM, without U0126",increased
same,"number of NGN3-positive cells, increase","[1]; day 1, 50 µM H2O2",~2 fold
same,"insulin surface, larger than controls","[2]; H2O2 50µM, analyzed seven days later",2.6 fold
same,Nrf2 RNA levels,Nrf2,slight increase
same,oxidative stress or damage in the resulting beta cells,beta cells,did not produce detectable oxidative stress or damage
same,activation of the ERK1/2 pathway,"ERK1/2; 5 or 15 minutes, H2O2 50 µM or 20 mM Glucose",induced
same,time after addition at which ERK1/2 activation was observed,ERK1/2; H2O2 50 µM,five
same,rate of cell proliferation (BrdU incorporation) vs controls,early PDX1+ progenitors,similar
"CC(=O)N[C@@H](CS)C(=O)O [NAC, N-Acetyl cystein]","number of NGN3-positive endocrine progenitor cells, decrease",[1],~2 fold
same,insulin staining surface,[2],decrease
same,reduction of the beta cell mass,embryonic pancreases; at E20.5,2.5 fold
same,"number of NGN3-positive cells, decrease compared to controls",embryonic pancreases; embryonic pancreases analyzed at E20.5,1.6 fold
"N#CC(=C(/N)Sc1ccccc1N)/C(C#N)=C(\N)Sc1ccccc1N [U0126, reference compound]",H2O2-induced increase of NGN3 expressing cells in the presence of the inhibitor,[1]; H2O2 at 50 µM with U0126,abrogated
same,activation of ERK1/2 by glucose in the presence of the inhibitor,"ERK1/2; 20 mM Glucose, U0126 10 µmol/l",abolished
same,activation of the ERK1/2 pathway by H2O2 in the presence of the inhibitor,"ERK1/2; H2O2 50 µM, U0126 10 µmol/l",blunted
